From the supplement of paper PMC13380429

Legend:
Conditions in all cases: 72 h
U2OS [1] = assay: drug sensitivity score (DSS) for viability; higher = more toxic; extreme values may be limits of the assay
Calu-3 [2] = assay: as above
HepG2 [3] = assay: as above
Caco-2 [4] = assay: as above
Vero E6 [5] = assay: as above
U2OS [6] = assay: cell viability relative to DMSO; higher = less toxic
Calu-3 [7] = assay: as above
HepG2 [8] = assay: as above
Caco-2 [9] = assay: as above
Vero E6 [10] = assay: as above
U2OS [11] = assay: relative viability EC50 (midpoint between 100% and the lowest measured viability); higher = less toxic
Calu-3 [12] = assay: as above
HepG2 [13] = assay: as above
Caco-2 [14] = assay: as above
Vero E6 [15] = assay: as above

Row | SMILES | drug sensitivity score (U2OS [1]) | drug sensitivity score (Calu-3 [2]) | drug sensitivity score (HepG2 [3]) | drug sensitivity score (Caco-2 [4]) | drug sensitivity score (Vero E6 [5]) | cell viability (U2OS [6]; 1 nM) | cell viability (U2OS [6]; 10 nM) | cell viability (U2OS [6]; 100 nM) | cell viability (U2OS [6]; 1000 nM) | cell viability (U2OS [6]; 10000 nM) | cell viability (Calu-3 [7]; 1 nM) | cell viability (Calu-3 [7]; 10 nM) | cell viability (Calu-3 [7]; 100 nM) | cell viability (Calu-3 [7]; 1000 nM) | cell viability (Calu-3 [7]; 10000 nM) | cell viability (HepG2 [8]; 1 nM) | cell viability (HepG2 [8]; 10 nM) | cell viability (HepG2 [8]; 100 nM) | cell viability (HepG2 [8]; 1000 nM) | cell viability (HepG2 [8]; 10000 nM) | cell viability (Caco-2 [9]; 1 nM) | cell viability (Caco-2 [9]; 10 nM) | cell viability (Caco-2 [9]; 100 nM) | cell viability (Caco-2 [9]; 1000 nM) | cell viability (Caco-2 [9]; 10000 nM) | cell viability (Vero E6 [10]; 1 nM) | cell viability (Vero E6 [10]; 10 nM) | cell viability (Vero E6 [10]; 100 nM) | cell viability (Vero E6 [10]; 1000 nM) | cell viability (Vero E6 [10]; 10000 nM) | relative viability EC50 (U2OS [11]) | relative viability EC50 (Calu-3 [12]) | relative viability EC50 (HepG2 [13]) | relative viability EC50 (Caco-2 [14]) | relative viability EC50 (Vero E6 [15])
1 | NC(=O)C[C@H](N)C(=O)O [L-asparagine] | 0 | 0 | 0 | 0 | 0.1 | 96.5% | 95.4% | 98.6% | 98.7% | 102% | 95.2% | 95.6% | 93.1% | 96.1% | 98% | 92.7% | 116% | 92.3% | 105% | 93.7% | 103% | 104% | 92.1% | 106% | 105% | 102% | 112% | 99.2% | 101% | 86.8% | > 10 µM | > 10 µM | > 10 µM | > 10 µM | > 10 µM
2 | C[N+](C)(C)[C@@H](Cc1c[nH]c(=S)[nH]1)C(=O)O [L-ergothioneine] | 0 | 0 | 0.7 | 0 | 0 | 96% | 94.1% | 98.2% | 92.4% | 95.6% | 97.2% | 97.7% | 95.2% | 108% | 95.4% | 83.4% | 88.9% | 102% | 98.8% | 80.4% | 100% | 101% | 114% | 105% | 97.3% | 94.3% | 94.9% | 96.5% | 109% | 106% | > 10 µM | > 10 µM | > 10 µM | > 10 µM | > 10 µM
3 | N[C@@H](Cn1oc(=O)[nH]c1=O)C(=O)O [L-quisqualic-acid] | 0 | 0 | 0 | 0 | 0 | 99.2% | 104% | 101% | 101% | 95.7% | 87.9% | 96.2% | 100% | 93.1% | 94.9% | 89.7% | 99.1% | 91% | 89.8% | 107% | 99.1% | 94% | 91.9% | 97% | 97.5% | 101% | 100% | 98.7% | 96.8% | 102% | > 10 µM | > 10 µM | > 10 µM | > 10 µM | > 10 µM
4 | Fc1ccc(-c2c3cccc(C(F)(F)F)c3nn2Cc2ccc(F)cc2Cl)cc1 [LXR-623] | 0 | 0 | 1.9 | 0.2 | 0 | 102% | 98.2% | 102% | 97.1% | 97.4% | 101% | 97.3% | 97% | 93.7% | 91.2% | 95.5% | 94.4% | 87.9% | 90.2% | 77.2% | 102% | 92% | 94.5% | 96.5% | 83.2% | 105% | 105% | 102% | 98% | 98.6% | > 10 µM | > 10 µM | > 10 µM | > 10 µM | > 10 µM
5 | Cc1ccc(S(=O)(=O)n2c(N)nc3ccccc32)cc1 [ML130] | 0 | 0 | 0 | 0 | 0 | 104% | 108% | 105% | 103% | 97.3% | 103% | 89.2% | 99.5% | 101% | 103% | 98% | 107% | 111% | 100% | 104% | 107% | 97% | 107% | 101% | 90.5% | 103% | 108% | 103% | 109% | 96.2% | > 10 µM | > 10 µM | > 10 µM | > 10 µM | > 10 µM
6 | NC(=O)C1=CN([C@@H]2O[C@H](COP(=O)(O)OP(=O)(O)OC[C@H]3O[C@@H](n4cnc5c(N)ncnc54)[C@H](OP(=O)(O)O)[C@@H]3O)[C@@H](O)[C@H]2O)C=CC1 [NADPH] | 0 | 0.1 | 0 | 0 | 0 | 94.1% | 101% | 98.4% | 102% | 98.1% | 90.8% | 85.1% | 87.7% | 91% | 101% | 101% | 104% | 97.7% | 86.2% | 104% | 86.7% | 92.7% | 88.4% | 93% | 91.9% | 105% | 86% | 103% | 94.6% | 99.5% | > 10 µM | > 10 µM | > 10 µM | > 10 µM | > 10 µM
7 | c1ccc(-c2nc(CN3CCN(c4ncccn4)CC3)c[nH]2)cc1 [NGD-94-1] | 0 | 0 | 0 | 0 | 0 | 100% | 95.5% | 98.4% | 92.5% | 109% | 79.7% | 93.8% | 85.5% | 95.7% | 108% | 98.2% | 97.3% | 94.1% | 101% | 105% | 99.7% | 106% | 91.9% | 102% | 111% | 93.2% | 97.5% | 91.5% | 92.9% | 105% | > 10 µM | > 10 µM | > 10 µM | > 10 µM | > 10 µM
8 | Cc1cc(O)c(-c2ccc([C@@H](C)CN)cc2)c2c1[nH]c(=O)c1sccc12 [OTS514] | 18.2 | 16.7 | 24.2 | 14.9 | 7.6 | 96.3% | 97.8% | 96.6% | 1.1% | 1.1% | 105% | 92.5% | 81.7% | 23.9% | 38.8% | 109% | 99.4% | 46.3% | 3.1% | 1.1% | 98.6% | 87.1% | 83.6% | 29.9% | 25.5% | 102% | 98.8% | 93.2% | 85.4% | 6% | 0.291 µM | 0.16 µM | 0.0917 µM | 0.21 µM | 1.95 µM
9 | COc1ccccc1C(=O)Nc1cc2c(cc1N1CCCC1)n(C)c(=O)n2C [PFI-4] | 0 | 0 | 0 | 1.6 | 0 | 101% | 101% | 97.6% | 99.4% | 92% | 93.7% | 104% | 94.7% | 106% | 98% | 92.7% | 93.1% | 94.1% | 96.5% | 91.5% | 104% | 99.8% | 92.7% | 89.1% | 77.6% | 99.2% | 102% | 96.2% | 92.2% | 89% | > 10 µM | > 10 µM | > 10 µM | > 10 µM | > 10 µM
10 | CCCCOc1cc(CC2CNC(=O)N2)ccc1OC (stereo not given) [Ro-20-1724] | 0 | 0 | 0.1 | 0 | 0 | 96.3% | 102% | 95.2% | 107% | 102% | 97.1% | 105% | 104% | 108% | 96.8% | 101% | 91.6% | 105% | 91.1% | 89.5% | 97.3% | 96.8% | 102% | 103% | 110% | 95.4% | 94.8% | 101% | 95.1% | 99.1% | > 10 µM | > 10 µM | > 10 µM | > 10 µM | > 10 µM
11 | N[C@@H](CCC(=O)N[C@@H](CSN=O)C(=O)NCC(=O)O)C(=O)O [S-nitrosoglutathione] | 0 | 0 | 0 | 0 | 0 | 98% | 97.6% | 92.9% | 98.3% | 101% | 94% | 99.2% | 93.9% | 108% | 108% | 102% | 98.4% | 108% | 91.7% | 99% | 101% | 98.2% | 96.3% | 87.9% | 99.9% | 93.6% | 97.2% | 95.2% | 95.2% | 101% | > 10 µM | > 10 µM | > 10 µM | > 10 µM | > 10 µM
